From PubChem BioAssay AID2042 (NMMLSC, 2009)
The source made the active and inactive calls.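 Rule for the calls: active = EC50 at most 30 µM plus a dose-response curve spanning at least 25% response; inactive = the rest.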

molecular target: GTPase HRas (Homo sapiens) (UniProt P01112); assay: mutant Ras fluorescent GTP loading blockade – biochemical, oxadiazole analogs, activated mutant, multiplex flow cytometry, SAR follow-up (AID 2042); conditions: GST-Ras beads, Bodipy-FL-GTP binding
Sequence (P01112 whole entry, looked up): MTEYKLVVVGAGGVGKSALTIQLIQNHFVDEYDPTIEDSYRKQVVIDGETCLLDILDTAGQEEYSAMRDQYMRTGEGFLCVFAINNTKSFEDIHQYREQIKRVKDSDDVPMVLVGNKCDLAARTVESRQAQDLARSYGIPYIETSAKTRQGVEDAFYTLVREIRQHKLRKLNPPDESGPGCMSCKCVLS

EC50	SMILES
> 30 µM (inactive)	COc1ccc(-c2noc(CCC(=O)N3CCN(c4cccc(F)c4)CC3)n2)cc1
> 30 µM (inactive)	Cc1ccc(C)c(N2CCN(C(=O)CCc3nc(-c4ccccc4F)no3)CC2)c1
inactive	COc1ccc(-c2noc(CCC(=O)N3CCN(c4cc(C)ccc4C)CC3)n2)cc1
> 30 µM (inactive)	COc1ccc(-c2noc(CC(=O)N3CCN(c4cc(C)ccc4C)CC3)n2)cc1
> 30 µM (inactive)	COc1ccc(-c2cc(CCC(=O)N3CCN(c4cc(C)ccc4C)CC3)[nH]n2)cc1
> 30 µM (inactive)	COc1ccc(-c2noc(CCCC(=O)N3CCN(c4cc(C)ccc4C)CC3)n2)cc1
> 30 µM (inactive)	COc1ccc(-c2noc(CCC(=O)N3CCN(c4ccc(C)cc4)CC3)n2)cc1
> 30 µM (inactive)	Cc1ccc(C)c(N2CCN(C(=O)CCc3nc(-c4ccc(Cl)cc4)no3)CC2)c1
> 30 µM (inactive)	Cc1ccc(C)c(N2CCN(C(=O)CCc3nc(-c4ccccc4C(F)(F)F)no3)CC2)c1
> 30 µM (inactive)	COc1ccc(-c2cccc(CCC(=O)N3CCN(c4cc(C)ccc4C)CC3)c2)cc1
> 30 µM (inactive)	COc1ccc(-c2ccc(CCC(=O)N3CCN(c4cc(C)ccc4C)CC3)[nH]2)cc1
> 30 µM (inactive)	COc1ccc(-c2noc(CCC(=O)N3CCN(c4ccc(Cl)cc4)CC3)n2)cc1
> 30 µM (inactive)	COc1ccccc1-c1noc(CCC(=O)N2CCN(c3cc(C)ccc3C)CC2)n1
> 30 µM (inactive)	Cc1ccc(C)c(N2CCN(C(=O)CCc3nc(-c4cccc(Br)c4)no3)CC2)c1
> 30 µM (inactive)	Cc1ccc(C)c(N2CCN(C(=O)CCc3nc(-c4ccccc4)no3)CC2)c1
> 30 µM (inactive)	COc1ccc(-c2noc(CCCCC(=O)N3CCN(c4cc(C)ccc4C)CC3)n2)cc1
> 30 µM (inactive)	Cc1ccc(C)c(N2CCN(C(=O)CCc3nc(-c4cccc(C(F)(F)F)c4)no3)CC2)c1
> 30 µM (inactive)	COc1ccc(-c2noc(CCC(=O)N3CCN(c4ccc(Br)cc4)CC3)n2)cc1
> 30 µM (inactive)	Cc1ccc(C)c(N2CCN(C(=O)CCc3nc(-c4ccc(F)cc4)no3)CC2)c1
> 30 µM (inactive)	COc1ccc(-c2ccc(CCC(=O)N3CCN(c4cc(C)ccc4C)CC3)o2)cc1
> 30 µM (inactive)	Cc1ccc(C)c(N2CCN(C(=O)CCc3nc(-c4ccccc4Br)no3)CC2)c1
> 30 µM (inactive)	Cc1ccc(C)c(N2CCN(C(=O)CCc3nc(-c4ccc(C(F)(F)F)cc4)no3)CC2)c1
> 30 µM (inactive)	COc1ccc(-c2noc(CCC(=O)N3CCN(c4cccc(C)c4C)CC3)n2)cc1
> 30 µM (inactive)	COc1ccc(-c2coc(CCC(=O)N3CCN(c4cc(C)ccc4C)CC3)n2)cc1
> 30 µM (inactive)	Cc1ccc(C)c(N2CCN(C(=O)CCc3nc(-c4ccccc4C)no3)CC2)c1
> 30 µM (inactive)	COc1ccc(-c2noc(CCC(=O)N3CCN(c4ccccc4)CC3)n2)cc1

EC50	SMILES
> 30 µM (inactive)	COc1ccc(-c2noc(CCC(=O)N3CCN(c4ccc(F)cc4)CC3)n2)cc1
> 30 µM (inactive)	COc1ccc(-c2noc(CCC(=O)N3CCN(c4ccccc4OC)CC3)n2)cc1
> 30 µM (inactive)	Cc1ccc(C)c(N2CCN(C(=O)CCc3nc(-c4ccc(N(C)C)cc4)no3)CC2)c1
> 30 µM (inactive)	COc1ccc(-c2noc(CCC(=O)N3CCN(c4ccccc4Cl)CC3)n2)cc1
> 30 µM (inactive)	COc1ccc(-c2ccc(CCC(=O)N3CCN(c4cc(C)ccc4C)CC3)s2)cc1
> 30 µM (inactive)	COc1ccc(-c2noc(CCC(=O)N3CCN(c4ccc(OC)cc4)CC3)n2)cc1
> 30 µM (inactive)	COc1ccc(-c2noc(CCC(=O)N3CCN(c4cccc(Br)c4)CC3)n2)cc1
> 30 µM (inactive)	Cc1ccc(C)c(N2CCN(C(=O)CCc3nc(-c4cccc(Cl)c4)no3)CC2)c1
> 30 µM (inactive)	COc1ccc(-c2noc(CCC(=O)N3CCN(c4cccc(Cl)c4)CC3)n2)cc1
> 30 µM (inactive)	COc1ccc(-c2cc(CCC(=O)N3CCN(c4cc(C)ccc4C)CC3)on2)cc1
> 30 µM (inactive)	Cc1ccc(-c2noc(CCC(=O)N3CCN(c4cc(C)ccc4C)CC3)n2)cc1
inactive	COc1cccc(-c2noc(CCC(=O)N3CCN(c4cc(C)ccc4C)CC3)n2)c1
> 30 µM (inactive)	Cc1ccc(C)c(N2CCN(C(=O)CCc3nc(-c4ccccc4Cl)no3)CC2)c1
> 30 µM (inactive)	COc1ccc(-c2noc(CCC(=O)N3CCN(c4ccc(C(F)(F)F)cc4)CC3)n2)cc1
> 30 µM (inactive)	COc1ccc(-c2noc(CCC(=O)N3CCN(c4ccccc4C(F)(F)F)CC3)n2)cc1
> 30 µM (inactive)	Cc1cccc(-c2noc(CCC(=O)N3CCN(c4cc(C)ccc4C)CC3)n2)c1
> 30 µM (inactive)	COc1ccc(-c2noc(CCC(=O)N3CCN(c4cccc(C)c4)CC3)n2)cc1
> 30 µM (inactive)	COc1ccc(-c2noc(CCC(=O)N3CCC(c4cc(C)ccc4C)CC3)n2)cc1
> 30 µM (inactive)	COc1ccc(-c2noc(CCC(=O)N3CCN(c4ccccc4Br)CC3)n2)cc1
> 30 µM (inactive)	COc1ccc(-c2noc(CCC(=O)N3CCN(c4cccc(OC)c4)CC3)n2)cc1
> 30 µM (inactive)	COc1ccc(-c2noc(CCC(=O)N3CCN(c4cccc(C(F)(F)F)c4)CC3)n2)cc1
inactive	COc1ccc(-c2noc(CCC(=O)N3CCN(c4ccccc4F)CC3)n2)cc1
> 30 µM (inactive)	Cc1ccc(C)c(N2CCN(C(=O)CCc3nc(-c4ccc(Br)cc4)no3)CC2)c1
> 30 µM (inactive)	Cc1ccc(C)c(N2CCN(C(=O)CCc3nc(-c4cccc(F)c4)no3)CC2)c1
> 30 µM (inactive)	COc1ccc(-c2noc(CCC(=O)N3CCN(c4ccccc4C)CC3)n2)cc1

same assay, conditions: GST-Ras beads, Bodipy-FL-GTP binding, measured here: Ki calculated from EC50

Ki [µM]	SMILES
0.12	COc1ccc(-c2noc(CCC(=O)N3CCN(c4cc(C)ccc4C)CC3)n2)cc1
0.28	COc1cccc(-c2noc(CCC(=O)N3CCN(c4cc(C)ccc4C)CC3)n2)c1
0.06	COc1ccc(-c2noc(CCC(=O)N3CCN(c4ccccc4F)CC3)n2)cc1
